Legend:
IKZF2 = target: T1, IKZF2 (Homo sapiens, UniProt Q96SW2+Q9UKS7); experiment: Western-blot assay, substrate protein degradation in hPBMCs: IKZF2; assay type: cell-based; settings: for IKZF2 substrate protein remaining %: compounds at 50 nM and 500 nM, 24 hours; for substrate protein remaining % IKZF2: 24 hours of compound treatment, 50 nM and 500 nM
T1 construct: effects of the compounds of the present disclosure on the expression of target proteins in cells; endogenous in cells; host or cells: human PBMCs (hPBMCs)
T1 sequence (Q9UKS7 whole entry): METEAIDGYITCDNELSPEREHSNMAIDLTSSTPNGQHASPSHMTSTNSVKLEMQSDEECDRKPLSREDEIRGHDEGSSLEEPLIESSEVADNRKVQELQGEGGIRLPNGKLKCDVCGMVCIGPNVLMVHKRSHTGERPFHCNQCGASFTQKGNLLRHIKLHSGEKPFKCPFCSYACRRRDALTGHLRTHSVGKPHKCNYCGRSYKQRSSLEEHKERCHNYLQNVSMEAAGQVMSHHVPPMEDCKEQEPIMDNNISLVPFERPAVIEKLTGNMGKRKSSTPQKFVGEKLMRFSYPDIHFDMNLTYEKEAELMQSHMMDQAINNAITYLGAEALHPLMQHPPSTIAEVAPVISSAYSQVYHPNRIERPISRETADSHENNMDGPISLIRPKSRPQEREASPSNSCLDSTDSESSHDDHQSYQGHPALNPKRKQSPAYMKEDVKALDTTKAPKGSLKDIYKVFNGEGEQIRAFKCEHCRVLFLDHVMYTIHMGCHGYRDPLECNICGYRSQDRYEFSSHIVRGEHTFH
T1 sequence (Q96SW2 whole entry): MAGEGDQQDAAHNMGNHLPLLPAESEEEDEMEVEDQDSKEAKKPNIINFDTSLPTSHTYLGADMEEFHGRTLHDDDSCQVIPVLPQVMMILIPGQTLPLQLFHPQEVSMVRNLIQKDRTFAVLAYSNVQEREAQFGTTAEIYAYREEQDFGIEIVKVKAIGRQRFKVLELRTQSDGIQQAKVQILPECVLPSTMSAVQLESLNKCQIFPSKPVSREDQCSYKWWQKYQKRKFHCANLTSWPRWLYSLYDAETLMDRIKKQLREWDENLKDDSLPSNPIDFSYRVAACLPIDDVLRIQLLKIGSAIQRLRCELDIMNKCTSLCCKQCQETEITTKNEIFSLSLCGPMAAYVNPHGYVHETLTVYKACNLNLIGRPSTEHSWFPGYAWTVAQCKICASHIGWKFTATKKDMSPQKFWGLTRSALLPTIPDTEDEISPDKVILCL
T1 sequence (Q16531 whole entry partner): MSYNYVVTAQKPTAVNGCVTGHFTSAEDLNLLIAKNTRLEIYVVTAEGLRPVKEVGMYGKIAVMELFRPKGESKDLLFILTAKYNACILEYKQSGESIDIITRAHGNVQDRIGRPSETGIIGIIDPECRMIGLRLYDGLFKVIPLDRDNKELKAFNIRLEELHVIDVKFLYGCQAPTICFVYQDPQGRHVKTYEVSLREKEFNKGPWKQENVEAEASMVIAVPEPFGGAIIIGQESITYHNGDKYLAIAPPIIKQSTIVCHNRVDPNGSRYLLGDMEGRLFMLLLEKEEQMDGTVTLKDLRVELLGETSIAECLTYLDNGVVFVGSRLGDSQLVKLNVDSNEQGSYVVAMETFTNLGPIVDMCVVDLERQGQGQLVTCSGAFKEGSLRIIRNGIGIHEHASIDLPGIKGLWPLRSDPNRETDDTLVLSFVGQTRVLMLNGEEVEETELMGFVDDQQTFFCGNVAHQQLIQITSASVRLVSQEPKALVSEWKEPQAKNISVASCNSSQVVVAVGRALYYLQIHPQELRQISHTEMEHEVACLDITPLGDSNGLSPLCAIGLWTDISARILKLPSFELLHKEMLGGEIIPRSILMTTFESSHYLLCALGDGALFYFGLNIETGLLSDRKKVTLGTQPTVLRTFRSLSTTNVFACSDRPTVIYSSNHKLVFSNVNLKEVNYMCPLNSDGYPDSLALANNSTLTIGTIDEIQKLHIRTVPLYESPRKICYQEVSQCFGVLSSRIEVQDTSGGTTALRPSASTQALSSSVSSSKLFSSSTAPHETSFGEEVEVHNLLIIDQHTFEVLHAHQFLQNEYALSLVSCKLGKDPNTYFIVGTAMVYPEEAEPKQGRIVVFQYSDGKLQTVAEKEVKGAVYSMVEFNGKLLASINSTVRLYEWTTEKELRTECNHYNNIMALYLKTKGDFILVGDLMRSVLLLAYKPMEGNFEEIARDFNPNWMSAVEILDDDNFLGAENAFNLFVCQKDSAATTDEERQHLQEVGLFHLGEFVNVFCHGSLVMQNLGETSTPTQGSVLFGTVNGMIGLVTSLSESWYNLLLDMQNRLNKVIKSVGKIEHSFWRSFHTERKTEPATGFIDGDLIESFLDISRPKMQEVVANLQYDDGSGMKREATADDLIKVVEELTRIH

GSPT1 = target: T2, GSPT1 (Homo sapiens, UniProt P15170+Q96SW2); experiment: Western-blot assay, substrate protein degradation in hPBMCs: GSPT1; assay type: cell-based; settings: for GSPT1 substrate protein remaining %: compounds at 50 nM and 500 nM, 24 hours; for substrate protein remaining % GSPT1: 24 hours of compound treatment, 50 nM and 500 nM
T2 construct: effects of the compounds of the present disclosure on the expression of target proteins in cells; endogenous in cells; host or cells: human PBMCs (hPBMCs)
T2 sequence (P15170 whole entry): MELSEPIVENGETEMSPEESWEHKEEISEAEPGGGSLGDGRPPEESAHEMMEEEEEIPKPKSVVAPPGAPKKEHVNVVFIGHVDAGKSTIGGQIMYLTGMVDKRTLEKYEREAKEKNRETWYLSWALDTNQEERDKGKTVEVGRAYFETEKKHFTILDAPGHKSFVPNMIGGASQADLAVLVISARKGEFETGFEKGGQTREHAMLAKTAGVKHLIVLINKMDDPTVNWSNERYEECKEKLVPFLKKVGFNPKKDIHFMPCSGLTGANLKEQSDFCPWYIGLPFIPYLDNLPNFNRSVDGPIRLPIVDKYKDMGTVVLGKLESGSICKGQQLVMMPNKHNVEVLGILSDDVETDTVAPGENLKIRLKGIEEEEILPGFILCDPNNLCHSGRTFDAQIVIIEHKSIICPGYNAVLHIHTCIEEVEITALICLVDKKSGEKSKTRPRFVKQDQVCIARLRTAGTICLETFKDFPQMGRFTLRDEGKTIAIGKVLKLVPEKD
T2 sequence (Q96SW2 whole entry): as the sequence (Q96SW2 whole entry) above
T2 sequence (Q16531 whole entry partner): as the sequence (Q16531 whole entry partner) above

WEE1 = target: T3, WEE1 (Homo sapiens, UniProt P30291+Q96SW2); experiment: Western-blot assay, substrate protein degradation in hPBMCs: WEE1; assay type: cell-based; settings: for WEE1 substrate protein remaining %: compounds at 50 nM and 500 nM, 24 hours; for substrate protein remaining % WEE1: 24 hours of compound treatment, 50 nM and 500 nM
T3 construct: effects of the compounds of the present disclosure on the expression of target proteins in cells; endogenous in cells; host or cells: human PBMCs (hPBMCs)
T3 sequence (P30291 whole entry): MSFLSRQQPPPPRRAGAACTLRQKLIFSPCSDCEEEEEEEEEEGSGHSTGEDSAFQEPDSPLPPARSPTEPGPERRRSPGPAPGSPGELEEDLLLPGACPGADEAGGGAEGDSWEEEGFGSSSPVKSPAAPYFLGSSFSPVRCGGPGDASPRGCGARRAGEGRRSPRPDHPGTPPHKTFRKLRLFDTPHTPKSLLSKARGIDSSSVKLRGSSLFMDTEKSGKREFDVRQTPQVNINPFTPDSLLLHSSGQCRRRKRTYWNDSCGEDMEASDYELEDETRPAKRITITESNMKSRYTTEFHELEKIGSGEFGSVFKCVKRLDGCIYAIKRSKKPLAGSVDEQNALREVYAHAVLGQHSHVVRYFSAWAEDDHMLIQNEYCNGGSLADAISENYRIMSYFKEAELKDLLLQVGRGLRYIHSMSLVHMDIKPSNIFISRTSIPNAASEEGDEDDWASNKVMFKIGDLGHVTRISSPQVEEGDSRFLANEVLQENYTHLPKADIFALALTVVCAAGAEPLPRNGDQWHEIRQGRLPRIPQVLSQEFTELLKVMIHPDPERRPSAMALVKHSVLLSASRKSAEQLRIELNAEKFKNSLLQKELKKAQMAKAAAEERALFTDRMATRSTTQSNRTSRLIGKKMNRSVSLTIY
T3 sequence (Q96SW2 whole entry): as the sequence (Q96SW2 whole entry) above
T3 sequence (Q16531 whole entry partner): as the sequence (Q16531 whole entry partner) above

IKZF3 = target: T4, IKZF3 (Homo sapiens, UniProt Q96SW2+Q9UKT9); experiment: Western-blot assay, substrate protein degradation in hPBMCs: IKZF3; assay type: cell-based; settings: for IKZF3 substrate protein remaining %: compounds at 50 nM and 500 nM, 24 hours; for substrate protein remaining % IKZF3: 24 hours of compound treatment, 50 nM and 500 nM
T4 construct: effects of the compounds of the present disclosure on the expression of target proteins in cells; endogenous in cells; host or cells: human PBMCs (hPBMCs)
T4 sequence (Q9UKT9 whole entry): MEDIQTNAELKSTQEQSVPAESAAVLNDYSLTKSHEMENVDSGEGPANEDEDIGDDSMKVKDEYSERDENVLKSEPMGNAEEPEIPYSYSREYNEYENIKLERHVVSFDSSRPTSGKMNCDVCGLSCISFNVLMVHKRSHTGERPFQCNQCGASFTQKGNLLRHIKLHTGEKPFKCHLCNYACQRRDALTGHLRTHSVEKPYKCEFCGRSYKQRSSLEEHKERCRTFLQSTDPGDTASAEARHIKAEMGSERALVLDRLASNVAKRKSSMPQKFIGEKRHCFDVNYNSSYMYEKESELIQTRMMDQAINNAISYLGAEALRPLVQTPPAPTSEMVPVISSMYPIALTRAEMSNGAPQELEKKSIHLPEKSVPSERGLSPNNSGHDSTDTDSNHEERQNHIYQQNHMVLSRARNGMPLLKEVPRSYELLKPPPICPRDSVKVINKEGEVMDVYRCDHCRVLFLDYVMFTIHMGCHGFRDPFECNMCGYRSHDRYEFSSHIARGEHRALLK
T4 sequence (Q96SW2 whole entry): as the sequence (Q96SW2 whole entry) above
T4 sequence (Q16531 whole entry partner): as the sequence (Q16531 whole entry partner) above

CK1α = target: T5, CK1α (Homo sapiens, UniProt P48729+Q96SW2); experiment: Western-blot assay, substrate protein degradation in hPBMCs: CK1α; assay type: cell-based; settings: for CK1α substrate protein remaining %: compounds at 50 nM and 500 nM, 24 hours; for substrate protein remaining % CK1α: 24 hours of compound treatment, 50 nM and 500 nM
T5 construct: effects of the compounds of the present disclosure on the expression of target proteins in cells; endogenous in cells; host or cells: human PBMCs (hPBMCs)
T5 sequence (P48729 whole entry): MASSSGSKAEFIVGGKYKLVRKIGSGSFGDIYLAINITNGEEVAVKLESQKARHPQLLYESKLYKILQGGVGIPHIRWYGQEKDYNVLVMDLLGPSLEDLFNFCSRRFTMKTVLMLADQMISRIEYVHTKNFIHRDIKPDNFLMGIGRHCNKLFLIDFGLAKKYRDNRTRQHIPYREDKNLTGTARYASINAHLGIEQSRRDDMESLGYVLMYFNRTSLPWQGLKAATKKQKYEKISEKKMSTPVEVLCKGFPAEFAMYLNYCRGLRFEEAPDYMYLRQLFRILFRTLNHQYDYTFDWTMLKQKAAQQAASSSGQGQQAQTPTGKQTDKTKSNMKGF
T5 sequence (Q96SW2 whole entry): as the sequence (Q96SW2 whole entry) above
T5 sequence (Q16531 whole entry partner): as the sequence (Q16531 whole entry partner) above

IKZF1 = target: T6, IKZF1 (Homo sapiens, UniProt Q13422+Q96SW2); experiment: Western-blot assay, substrate protein degradation in hPBMCs: IKZF1; assay type: cell-based; settings: for IKZF1 substrate protein remaining %: compounds at 50 nM and 500 nM, 24 hours; for substrate protein remaining % IKZF1: 24 hours of compound treatment, 50 nM and 500 nM
T6 construct: effects of the compounds of the present disclosure on the expression of target proteins in cells; endogenous in cells; host or cells: human PBMCs (hPBMCs)

MV-4-11 = experiment: Cell viability assay (CellTiter-Meiluncell Luminescent), tumor cell proliferation, MV-4-11; settings: Homo sapiens, MV4-11, 96 h; for IC50: read-out: inhibitory activity (IC50, nM) against tumor cells proliferation, MV-4-11; for inhibition at 0.01 µM: read-out: Inhibition Rate at 10 nM (%); for inhibition at 0.5 µM: read-out: Inhibition Rate at 500 nM (%)
H292 = experiment: Cell viability assay (CellTiter-Meiluncell Luminescent), tumor cell proliferation, H292; settings: Homo sapiens, NCI-H292, 96 h

IC50 (MV-4-11)	SMILES	IKZF2 substrate protein remaining % (IKZF2)	GSPT1 substrate protein remaining % (GSPT1)	WEE1 substrate protein remaining % (WEE1)	IKZF3 substrate protein remaining % (IKZF3)	CK1α substrate protein remaining % (CK1α)	IKZF1 substrate protein remaining % (IKZF1)	substrate protein remaining % IKZF2 (IKZF2)	substrate protein remaining % GSPT1 (GSPT1)	substrate protein remaining % WEE1 (WEE1)	substrate protein remaining % IKZF3 (IKZF3)	substrate protein remaining % CK1α (CK1α)	substrate protein remaining % IKZF1 (IKZF1)	inhibition at 0.01 µM (MV-4-11)	inhibition at 0.5 µM (MV-4-11)	inhibition at 0.01 µM (H292; read-out: Inhibition Rate at 10 nM (%))	inhibition at 0.5 µM (H292; read-out: Inhibition Rate at 500 nM (%))
100 to 300 nM	O=C1CCN(N2Cc3cc(CN4CCN(c5cc(Cl)ccc5Cl)CC4)ccc3C2=O)C(=O)N1 [GT-06773, 1-(5-((4-(2,5-dichlorophenyl)piperazin-1-yl)methyl)-1-oxoisoindolin-2-yl)dihydropyrimidine-2,4(1H,3H)-dione]	A ("A" is defined as 0% ≤ substrate protein remaining % ≤ 80%)	A ("A" is defined as 0% ≤ substrate protein remaining % ≤ 80%)	A ("A" is defined as 0% ≤ substrate protein remaining % ≤ 80%)	A ("A" is defined as 0% ≤ substrate protein remaining % ≤ 80%)	A ("A" is defined as 0% ≤ substrate protein remaining % ≤ 80%)	B ("B" is defined as 80%< substrate protein remaining %≤ 100%)	–	–	–	–	–	–	–	–	–	–
300 to 500 nM	O=C1CCN(N2Cc3cc(CN4CCN(c5cccc(F)c5F)CC4)ccc3C2=O)C(=O)N1 [GT-06777, 1-(5-((4-(2,3-difluorophenyl)piperazin-1-yl)methyl)-1-oxoisoindolin-2-yl)dihydropyrimidine-2,4(1H,3H)-dione]	A ("A" is defined as 0% ≤ substrate protein remaining % ≤ 80%)	A ("A" is defined as 0% ≤ substrate protein remaining % ≤ 80%)	A ("A" is defined as 0% ≤ substrate protein remaining % ≤ 80%)	B ("B" is defined as 80%< substrate protein remaining %≤ 100%)	A ("A" is defined as 0% ≤ substrate protein remaining % ≤ 80%)	B ("B" is defined as 80%< substrate protein remaining %≤ 100%)	–	–	–	–	–	–	–	–	–	–
500 to 1000 nM	O=C1CCN(N2Cc3cc(CN4CCC(c5ccccc5)CC4)ccc3C2=O)C(=O)N1 [GT-06884, 1-(1-oxo-5-((4-phenylpiperidin-1-yl)methyl)isoindolin-2-yl)dihydropyrimidine-2,4(1H,3H)-dione]	B ("B" is defined as 80%< substrate protein remaining %≤ 100%)	A ("A" is defined as 0% ≤ substrate protein remaining % ≤ 80%)	B ("B" is defined as 80%< substrate protein remaining %≤ 100%)	B ("B" is defined as 80%< substrate protein remaining %≤ 100%)	B ("B" is defined as 80%< substrate protein remaining %≤ 100%)	B ("B" is defined as 80%< substrate protein remaining %≤ 100%)	–	–	–	–	–	–	–	–	–	–
100 to 300 nM	O=C1CCN(N2Cc3cc(CN4CCC(c5cccc(Br)c5)CC4)ccc3C2=O)C(=O)N1 [GT-06885, 1-(5-((4-(3-bromophenyl)piperidin-1-yl)methyl)-1-oxoisoindolin-2-yl)dihydropyrimidine-2,4(1H,3H)-dione]	A ("A" is defined as 0% ≤ substrate protein remaining % ≤ 80%)	A ("A" is defined as 0% ≤ substrate protein remaining % ≤ 80%)	B ("B" is defined as 80%< substrate protein remaining %≤ 100%)	B ("B" is defined as 80%< substrate protein remaining %≤ 100%)	B ("B" is defined as 80%< substrate protein remaining %≤ 100%)	A ("A" is defined as 0% ≤ substrate protein remaining % ≤ 80%)	–	–	–	–	–	–	–	–	–	–
500 to 1000 nM	O=C1CCN(N2Cc3cc(CN4CCC(c5cccc(C(F)(F)F)c5)CC4)ccc3C2=O)C(=O)N1 [GT-06892, 1-(1-oxo-5-((4-(3-(trifluoromethyl)phenyl)piperidin-1-yl)methyl)isoindolin-2-yl)dihydropyrimidine-2,4(1H,3H)-dione]	A ("A" is defined as 0% ≤ substrate protein remaining % ≤ 80%)	A ("A" is defined as 0% ≤ substrate protein remaining % ≤ 80%)	B ("B" is defined as 80%< substrate protein remaining %≤ 100%)	B ("B" is defined as 80%< substrate protein remaining %≤ 100%)	B ("B" is defined as 80%< substrate protein remaining %≤ 100%)	A ("A" is defined as 0% ≤ substrate protein remaining % ≤ 80%)	–	–	–	–	–	–	–	–	–	–
–	O=C1CCN(N2Cc3cc(CN4CCN(c5ncnc6sc(-c7ccccc7)cc56)CC4)ccc3C2=O)C(=O)N1 [GT-08064, 1-(1-oxo-5-((4-(6-phenylthieno[2,3-d]pyrimidin-4-yl)piperazin-1-yl)methyl)isoindolin-2-yl)dihydropyrimidine-2,4(1H,3H)-dione]	–	–	–	–	–	–	A (0% ≤ substrate protein remaining % ≤ 80%)	B (80%< substrate protein remaining %≤ 100%)	B (80%< substrate protein remaining %≤ 100%)	B (80%< substrate protein remaining %≤ 100%)	B (80%< substrate protein remaining %≤ 100%)	B (80%< substrate protein remaining %≤ 100%)	25 to 30%	10 to 18%	–	–
–	Cc1nc(N2CCN(Cc3ccc4c(c3)CN(N3CCC(=O)NC3=O)C4=O)CC2)c2ccsc2n1 [GT-08067, 1-(5-((4-(2-methylthieno[2,3-d]pyrimidin-4-yl)piperazin-1-yl)methyl)-1-oxoisoindolin-2-yl)dihydropyrimidine-2,4(1H,3H)-dione]	–	–	–	–	–	–	A (0% ≤ substrate protein remaining % ≤ 80%)	B (80%< substrate protein remaining %≤ 100%)	B (80%< substrate protein remaining %≤ 100%)	B (80%< substrate protein remaining %≤ 100%)	B (80%< substrate protein remaining %≤ 100%)	B (80%< substrate protein remaining %≤ 100%)	60 to 80%	40 to 60%	20 to 40%	20 to 40%
–	O=C1CCN(N2Cc3cc(CN4CCN(c5ncnc6sc7c(c56)CCCC7)CC4)ccc3C2=O)C(=O)N1 [GT-08077, 1-(1-oxo-5-((4-(5,6,7,8-tetrahydrobenzo[4,5]thieno[2,3-d]pyrimidin-4-yl)piperazin-1-yl)methyl)isoindolin-2-yl)dihydropyrimidine-2,4(1H,3H)-dione]	–	–	–	–	–	–	B (80%< substrate protein remaining %≤ 100%)	A (0% ≤ substrate protein remaining % ≤ 80%)	B (80%< substrate protein remaining %≤ 100%)	B (80%< substrate protein remaining %≤ 100%)	A (0% ≤ substrate protein remaining % ≤ 80%)	B (80%< substrate protein remaining %≤ 100%)	25 to 30%	25 to 30%	–	–
–	Cc1cc2c(N3CCN(Cc4ccc5c(c4)C(=O)N(N4CCC(=O)NC4=O)C5=O)CC3)ncnc2s1 [GT-08092, 2-(2,4-dioxotetrahydropyrimidin-1(2H)-yl)-5-((4-(6-methylthieno[2,3-d]pyrimidin-4-yl)piperazin-1-yl)methyl)isoindoline-1,3-dione]	–	–	–	–	–	–	B (80%< substrate protein remaining %≤ 100%)	A (0% ≤ substrate protein remaining % ≤ 80%)	A (0% ≤ substrate protein remaining % ≤ 80%)	B (80%< substrate protein remaining %≤ 100%)	A (0% ≤ substrate protein remaining % ≤ 80%)	B (80%< substrate protein remaining %≤ 100%)	10 to 18%	30 to 40%	–	–
–	Cc1sc2ncnc(N3CCCN(Cc4ccc5c(c4)C(=O)N(N4CCC(=O)NC4=O)C5=O)CC3)c2c1C [GT-08095, 5-((4-(5,6-dimethylthieno[2,3-d]pyrimidin-4-yl)-1,4-diazepan-1-yl)methyl)-2-(2,4-dioxotetrahydropyrimidin-1(2H)-yl)isoindoline-1,3-dione]	–	–	–	–	–	–	B (80%< substrate protein remaining %≤ 100%)	B (80%< substrate protein remaining %≤ 100%)	A (0% ≤ substrate protein remaining % ≤ 80%)	B (80%< substrate protein remaining %≤ 100%)	A (0% ≤ substrate protein remaining % ≤ 80%)	B (80%< substrate protein remaining %≤ 100%)	25 to 30%	18 to 25%	–	–
–	O=C1CCN(N2C(=O)c3ccc(CN4CCC(c5ncnc6sccc56)CC4)cc3C2=O)C(=O)N1 [GT-08106, 2-(2,4-dioxotetrahydropyrimidin-1(2H)-yl)-5-((4-(thieno[2,3-d]pyrimidin-4-yl)piperidin-1-yl)methyl)isoindoline-1,3-dione]	–	–	–	–	–	–	B (80%< substrate protein remaining %≤ 100%)	A (0% ≤ substrate protein remaining % ≤ 80%)	A (0% ≤ substrate protein remaining % ≤ 80%)	B (80%< substrate protein remaining %≤ 100%)	B (80%< substrate protein remaining %≤ 100%)	B (80%< substrate protein remaining %≤ 100%)	10 to 18%	18 to 25%	–	–
